Consider 18 compounds from PubChem BioAssay AID328 (DTP/NCI, 2004).

In this assay the test system is BDF1 mice, P388 leukemia ip, median survival T/C. Put plainly: NCI In Vivo Anticancer Drug Screen. Data for tumor model P388 Leukemia (intraperitoneal) in B6D2F1 (BDF1) mice. Particulars: endpoint: median survival time, higher = longer survival. The method, boiled down: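 Each value expresses how treatment altered survival: treated-mouse outcome over vehicle-mouse outcome, both groups bearing the transplanted tumour.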

Setting [1] is: dose: 50.0 mg/kg/injection, schedule: Q01DX009 (ip), vehicle: saline with Tween-80.
Setting [2] is: dose: 50.0 mg/kg/injection, schedule: Q04DX003 (ip), vehicle: saline with Tween-80.
Where [3] appears, read: dose: 50.0 mg/kg/injection, schedule: Q04DX003 (ip), vehicle: Klucel (hydroxypropylcellulose) (HPC).
The mark [4] stands for this setting: dose: 25.0 mg/kg/injection, schedule: Q01DX009 (ip), vehicle: Klucel (hydroxypropylcellulose) (HPC).
The mark [5] stands for this setting: dose: 100.0 mg/kg/injection, schedule: Q01DX009 (ip), vehicle: saline with Tween-80.
Setting [6] is: dose: 100.0 mg/kg/injection, schedule: Q04DX003 (ip), vehicle: saline with Tween-80.
Setting [7] is: dose: 200.0 mg/kg/injection, schedule: Q01DX009 (ip), vehicle: saline with Tween-80.
Setting [8] is: dose: 200.0 mg/kg/injection, schedule: Q04DX003 (ip), vehicle: saline with Tween-80.
[9] abbreviates: dose: 400.0 mg/kg/injection, schedule: Q04DX003 (ip), vehicle: saline with Tween-80.
The mark [10] stands for this setting: dose: 100.0 mg/kg/injection, schedule: Q04DX002 (ip), vehicle: saline with Tween-80.
The mark [11] stands for this setting: dose: 200.0 mg/kg/injection, schedule: Q04DX002 (ip), vehicle: saline with Tween-80.

Where “and” joins values, the source holds several entries; their conditions need not be identical. Equal values may be shown once. Toxic doses and inconclusive results are not listed.

Regarding `CNC(=N)c1ccc(NC(=N)c2ccc(NC(=N)c3ccc(NC(=O)Nc4ccc(C#N)cc4)cc3)cc2)cc1`, the T/C is 123 % of control (dose: 3.0 mg/kg/injection, schedule: Q04DX003 (ip), vehicle: saline with Tween-80); 163 % of control (dose: 14.0 mg/kg/injection, schedule: Q04DX003 (ip), vehicle: saline with Tween-80); 157 % of control (dose: 16.0 mg/kg/injection, schedule: Q01DX009 (ip), vehicle: saline with Tween-80); 173 % of control and 200 % of control (dose: 24.0 mg/kg/injection, schedule: Q01DX009 (ip), vehicle: saline with Tween-80); 250 % of control and 168 % of control and 200 % of control (dose: 33.0 mg/kg/injection, schedule: Q04DX003 (ip), vehicle: saline with Tween-80); 230 % of control (dose: 37.0 mg/kg/injection, schedule: Q01DX009 (ip), vehicle: saline with Tween-80). Also, the T/C is, setting by setting: (dose: 37.5 mg/kg/injection, schedule: Q01DX009 (ip), vehicle: saline with Tween-80) 153 % of control; under setting [1], 103 % of control; under setting [2], 250 % of control and 186 % of control; (dose: 75.0 mg/kg/injection, schedule: Q04DX003 (ip), vehicle: saline with Tween-80) 250 % of control and 172 % of control; (dose: 112.0 mg/kg/injection, schedule: Q04DX003 (ip), vehicle: saline with Tween-80) 216 % of control.
In the case of `O=C(c1ccccc1)C1CCCCC1`, the T/C runs as follows: (dose: 12.0 mg/kg/injection, schedule: Q04DX003 (ip), vehicle: Klucel (hydroxypropylcellulose) (HPC)) 104 % of control; (dose: 25.0 mg/kg/injection, schedule: Q04DX003 (ip), vehicle: Klucel (hydroxypropylcellulose) (HPC)) 109 % of control; under setting [3], 100 % of control; (dose: 200.0 mg/kg/injection, schedule: Q04DX003 (ip), vehicle: saline) 107 % of control; (dose: 400.0 mg/kg/injection, schedule: Q04DX003 (ip), vehicle: saline) 107 % of control.
As for `CCN(CC)c1nc(NC2CCCCC2)c2nc(N(CC)CC)nc(NC3CCCCC3)c2n1`, the T/C is 101 % of control (dose: 3.13 mg/kg/injection, schedule: Q01DX009 (ip), vehicle: Klucel (hydroxypropylcellulose) (HPC)); 110 % of control (dose: 6.25 mg/kg/injection, schedule: Q01DX009 (ip), vehicle: Klucel (hydroxypropylcellulose) (HPC)); 99 % of control (dose: 12.5 mg/kg/injection, schedule: Q01DX009 (ip), vehicle: Klucel (hydroxypropylcellulose) (HPC)); 101 % of control under setting [4].
For `O=C(NC(Cc1nn[nH]n1)C(=O)OCc1ccccc1)OCc1ccccc1` (stereo not drawn), the T/C is 100 % of control under setting [5]; 111 % of control under setting [6]; 96 % of control under setting [7]; 94 % of control under setting [8]; 87 % of control under setting [9].
Regarding `COc1ccc(-c2nc3c(=O)n(C)c(=O)n(C)c3nc2-c2ccc(OC)cc2)cc1`, the T/C was 104 % of control under setting [10]; 97 % of control under setting [11]; 97 % of control (dose: 400.0 mg/kg/injection, schedule: Q04DX002 (ip), vehicle: saline with Tween-80).
With `CCOC(=O)N1c2ccccc2C=CC1/C(N)=N/O` (stereo not drawn), the T/C was 109 % of control under setting [4]; 95 % of control (dose: 50.0 mg/kg/injection, schedule: Q01DX009 (ip), vehicle: Klucel (hydroxypropylcellulose) (HPC)); 95 % of control under setting [3]; 104 % of control (dose: 100.0 mg/kg/injection, schedule: Q01DX009 (ip), vehicle: Klucel (hydroxypropylcellulose) (HPC)); 95 % of control (dose: 100.0 mg/kg/injection, schedule: Q04DX003 (ip), vehicle: Klucel (hydroxypropylcellulose) (HPC)).
`c1cc2c3c(c1)ncn3CCC2`: the T/C is, setting by setting: (dose: 25.0 mg/kg/injection, schedule: Q04DX003 (ip), vehicle: other) 100 % of control; (dose: 50.0 mg/kg/injection, schedule: Q04DX003 (ip), vehicle: other) 100 % of control; (dose: 100.0 mg/kg/injection, schedule: Q04DX003 (ip), vehicle: other) 95 % of control.
Regarding `NC(N)=NC(N)=Nc1ccc(S(=O)(=O)O)cc1`, the T/C was 103 % of control under setting [5]; 97 % of control under setting [7]; 94 % of control (dose: 400.0 mg/kg/injection, schedule: Q01DX009 (ip), vehicle: saline with Tween-80).
For `ON=C(CSCc1ccccc1)CSCc1ccccc1`, the T/C under setting [2] was 99 % of control, the T/C under setting [6] is 103 % of control, the T/C under setting [8] is 88 % of control and the T/C under setting [9] was 95 % of control.
As for `CNC(=O)c1ccccc1Sc1ccccc1`, the T/C by setting is: under setting [1], 104 % of control; under setting [5], 98 % of control; under setting [7], 106 % of control.
Consider `COC(=O)[C@H]1[C@H]2C[C@@H]3c4[nH]c5cc(OC)ccc5c4CCN3C[C@H]2C[C@@H](OC(=O)c2cc(OC)c(OC)c(OC)c2)[C@@H]1OC`, for which, for the setting “dose: 0.37 mg/kg/injection, schedule: Q01DX009 (ip), vehicle: saline with Tween-80”, the T/C is 95 % of control.
As to `Cn1cnc([N+](=O)[O-])c1Sc1ncnc2nc[nH]c12`, the T/C runs as follows: (dose: 44.0 mg/kg/injection, schedule: Q04DX003 (ip), vehicle: saline sonified) 110 % of control; (dose: 66.0 mg/kg/injection, schedule: Q04DX003 (ip), vehicle: saline sonified) 120 % of control; (dose: 150.0 mg/kg/injection, schedule: Q04DX003 (ip), vehicle: saline sonified) 175 % of control; (dose: 200.0 mg/kg/injection, schedule: Q01DX009 (ip), vehicle: saline) 86 % of control; (dose: 400.0 mg/kg/injection, schedule: Q04DX003 (ip), vehicle: saline sonified) 109 % of control.
As for `C#CCSC(=N)N`, the T/C (dose: 12.5 mg/kg/injection, schedule: Q01DX009 (ip), vehicle: saline) was 100 % of control; the T/C (dose: 33.0 mg/kg/injection, schedule: Q01DX009 (ip), vehicle: saline) is 109 % of control and 118 % of control; the T/C (dose: 37.5 mg/kg/injection, schedule: Q04DX003 (ip), vehicle: saline) is 109 % of control; the T/C (dose: 50.0 mg/kg/injection, schedule: Q01DX009 (ip), vehicle: saline) was 100 % of control and 115 % of control; the T/C (dose: 75.0 mg/kg/injection, schedule: Q04DX003 (ip), vehicle: saline) was 109 % of control.
In the case of `CC1CC[N-]CC1.CC1CC[N-]CC1.[Br][Pt+2]([Br])([Br])[Br]`, the T/C reads like this: (dose: 1.56 mg/kg/injection, schedule: Q01DX009 (ip), vehicle: saline with Tween-80) 100 % of control; (dose: 3.12 mg/kg/injection, schedule: Q01DX009 (ip), vehicle: saline with Tween-80) 94 % of control; (dose: 3.12 mg/kg/injection, schedule: Q04DX003 (ip), vehicle: saline with Tween-80) 97 % of control; (dose: 6.25 mg/kg/injection, schedule: Q01DX009 (ip), vehicle: saline with Tween-80) 107 % of control; (dose: 6.25 mg/kg/injection, schedule: Q04DX003 (ip), vehicle: saline with Tween-80) 91 % of control and 108 % of control; (dose: 12.5 mg/kg/injection, schedule: Q04DX003 (ip), vehicle: saline with Tween-80) 100 % of control. The T/C is, setting by setting: (dose: 25.0 mg/kg/injection, schedule: Q04DX003 (ip), vehicle: saline with Tween-80) 117 % of control; under setting [2], 91 % of control and 121 % of control.
As for `O=S(c1ccccc1)C1Cc2ccccc2C1Cl` (stereo not drawn), the T/C was 107 % of control (dose: 50.0 mg/kg/injection, schedule: Q01DX009 (ip), vehicle: other); 107 % of control (dose: 100.0 mg/kg/injection, schedule: Q01DX009 (ip), vehicle: other); 115 % of control (dose: 200.0 mg/kg/injection, schedule: Q01DX009 (ip), vehicle: other).
Consider `COc1ccc(O)c(/C=C/c2cc[n+](C)cc2)c1`, for which the T/C is 91 % of control under setting [10] and 97 % of control under setting [11].
On to `COc1cccc(C(O)c2ccncc2)c1OC` (stereo not drawn), for which the T/C by setting is: (dose: 25.0 mg/kg/injection, schedule: Q04DX003 (ip), vehicle: water) 113 % of control; (dose: 50.0 mg/kg/injection, schedule: Q04DX003 (ip), vehicle: water) 108 % of control; (dose: 100.0 mg/kg/injection, schedule: Q04DX003 (ip), vehicle: water) 103 % of control; (dose: 200.0 mg/kg/injection, schedule: Q04DX003 (ip), vehicle: water) 90 % of control; (dose: 400.0 mg/kg/injection, schedule: Q04DX003 (ip), vehicle: water) 97 % of control.
For `O=C(O)c1oc2ccccc2c1CO`, the T/C is 99 % of control under setting [1], 101 % of control under setting [5] and 105 % of control under setting [7].
